Measurements taken from publication PMC11946258, “Self-Assembly, Antimicrobial Properties and Biodegradability of Ester-Functionalized Choline-Based Surface-Active Ionic Liquids” (Molecules, 2025).

Tests used:
[1] = system: MRSA biofilms; type: cell-based, methicillin-resistant Staphylococcus aureus; details: MRSA biofilm, MTT
Method: The biocidal activity of the ester-functionalized choline-based ILs on bacterial and fungal cells in biofilms was assessed by MTT cell viability assays. CnECholBr were evaluated for their potential to kill cells in pre-established biofilms of MRSA and C. albicans, two clinically relevant pathogens. Pre-formed biofilms on 48-wells plates were treated with increasing concentrations of the ester-functionalized choline-based ILs and the cell viability of the sessile cells was quantified by the MTT method. The results obtained for MRSA and C. albicans biofilms are shown in Figure 6a and Figure 6b, respectively.
(§1) Antibiofilm activity was assessed against biofilm-forming strains of methicillin-resistant Staphylococcus aureus (MRSA) ATCC 43300 and Candida albicans ATCC 90028. The biofilm inhibition and eradication capacities of ILs were evaluated against adherent bacterial biofilms grown in 96-well microtiter plates. Bacteria were grown on Tryptic soy agar at 37 °C for 24 h and the fungi on Sabouraud agar at 30 °C for 24 h. Bacteria were suspended in lysogeny broth containing glucose (1%) at 1.5 × 10^8 CFU/mL and yeasts were suspended in RPMI medium at 1.5 × 10^7 CFU/mL.
For mature biofilm formation, 200 μL of the bacterial or fungal suspension was added to each well in a 48-well microplate, and incubated for 24 h at 37 °C for bacteria and 30 °C for yeast. The wells were then washed three times with PBS and 200 µL of each test solution with different concentrations of surfactants prepared in MHB (for bacteria) or RPMI medium (for yeasts) was added to each well containing the preformed biofilm. The plates were incubated for 24 h at 30 °C. The medium was removed and the wells were then washed twice with PBS. MTT solution (200 μL) was added to each well and the plate was incubated for 4 h. The MTT was then removed and 200 μL of DMSO was added to solubilize […]. The OD value was recorded at 540 nm. Controls were performed with non-ionic liquids. Each assay was run four times and the results were averaged.

[2] = system: MRSA biofilm; assay: MRSA biofilm formation inhibition (crystal violet); type: cell-based, methicillin-resistant Staphylococcus aureus; details: Staphylococcus aureus, at 128 µg/mL (highest concentration tested), 24 h, 37 °C, CV staining
Method: To assess the ability of ester-functionalized cholinium-based ILs to suppress MRSA biofilm formation, CnECholBr samples were introduced to newly prepared bacterial suspensions. These mixtures were then incubated for 24 h at 37 °C. Subsequently, crystal violet (CV) staining was employed to quantify the biofilm biomass. The findings from this experiment are illustrated in Figure 4.
as §1
To assess the effect of ionic liquids on bacterial biofilm formation, we employed a microplate assay. We added 100 μL of IL at varying concentrations (2–128 μg/mL, using two-fold serial dilutions) to each well of a 96-well microplate, followed by 100 μL of diluted bacterial suspension. After incubating the plates at 37 °C for 24 h, we measured bacterial growth by recording the optical density at 600 nm (OD600). We then discarded the spent media, fixed the biofilm with methanol, and stained it with crystal violet. Following a water rinse, we dissolved the stained biofilm using an ethanol-acetic acid solution and measured the absorbance at 570 nm to quantify biofilm formation. To ensure reproducibility, we performed each assay in triplicate and averaged the results.

[3] = system: MRSA biofilms; assay: MRSA mature biofilm eradication (crystal violet); type: cell-based, methicillin-resistant Staphylococcus aureus; details: CV staining, up to the highest tested concentration of 256 µg/mL
Method: The capacity of the ester-functionalised cholinium-based ILs to eradicate established MRSA biofilms was evaluated through the performance of eradication assays on microtiter plates. CV staining was applied to measure biofilm biomass.
as §1
To evaluate the effect of ionic liquids on mature biofilms, we employed a modified microtiter plate assay. We first generated mature biofilms by incubating 200 μL of diluted bacterial suspension in each well of a 96-well plate for 24 h at 37 °C. After gently washing the biofilms with PBS, we added 200 μL of ionic liquid solution at various concentrations (4–256 μg/mL, using two-fold serial dilutions) to each well and incubated for an additional 24 h at 37 °C. Following treatment, we fixed the biofilms with 150 μL methanol for 10 min. The subsequent crystal violet (CV) staining and quantification steps were performed as described in the previous biofilm formation assay (Section 3.6.1), allowing us to assess the impact of ionic liquids on established biofilms.

[4] = system: Candida albicans; assay: Antifungal MIC broth microdilution; type: cell-based; details: ATCC90028; Candida albicans ATCC 90028, RPMI 1640, 24 h, 30 °C
Method: (§2) The antimicrobial activity of cholinium-based ILs with an ester group in the alkyl chain was evaluated against a range of representative bacteria and fungi.
(§3) The antifungal activity was evaluated against the following yeasts: Candida albicans ATCC 90028, Candida tropicalis ATCC 7349, Candida parapsilosis ATCC 22019, Candida glabrata ATCC 66032. Frozen yeast stocks were inoculated into Sabourauds’s agar (SBA) and culture plates and incubated at 35 °C for 24 h. Three to four colonies of each strain were dispersed in sterile medium, Roswell Park Memorial Institute medium (RPMI 1640 medium), to obtain dispersions with a turbidity equivalent to 0.5 on the MacFarland scale (McFarland DEN-1B Grant-bio model densitometer). Minimum fungicidal concentrations (MFC) values—the lowest concentration of an antimicrobial agent that prevents the establishment of visible microbial growth after 24 h at 30 °C—were used to determine in vitro antifungal activity. MFCs were determined using a broth microdilution assay. Serial dilutions of each IL, ranging from 512 to 2 µg/mL, were dissolved in RPMI 1640 medium and dispensed (100 µL) into the appropriate wells of a 96-well polystyrene microtiter plate. The nutrient broth starter culture of each yeast strain (100 μL) was added to achieve a final inoculum of approximately 7.5 × 10^5 CFU per mL for yeast. Nutrient broth medium without the compound was used as a growth control. The development of turbidity in an inoculated medium is a function of growth and reflects an increase in both mass and cell number. To confirm this observation, 20 μL of resazurin at 0.015% w/v was added to each well and allowed to react for approximately 2 h at 30 °C. After the incubation period, the indicator of microbial growth, i.e., a change from blue to pink, confirmed the MIC value.

[5] = system: Candida glabrata; assay: Antifungal MIC broth microdilution; type: cell-based; details: Nakaseomyces glabratus, ATCC66032; Candida glabrata ATCC 66032, RPMI 1640, 24 h, 30 °C
Method: as §2, §3

[6] = system: Candida parasilopsis; assay: Antifungal MIC broth microdilution; type: cell-based; details: Candida parapsilosis ATCC 22019, RPMI 1640, 24 h, 30 °C
Method: as §2, §3

[7] = system: Candida tropicalis; assay: Antifungal MIC broth microdilution; type: cell-based; details: ATCC7349; Candida tropicalis ATCC 7349, RPMI 1640, 24 h, 30 °C
Method: as §2, §3

With `CCCCCCCCCCCCCCOC(=O)C[N+](C)(C)CCO.[Br-]` [C14ECholBr, N-(2-hydroxyethyl)-N,N-dimethyl-2-oxo-2-(tetradecyloxy)ethan-1-aminium bromide] as the compound, how does the cell viability ([1]; plateau at and above 128 µg/mL) read?
The cell viability was “around 30%”.

What about the inhibition at 128 µg/mL [2] of the same compound?
Its inhibition at 128 µg/mL is no more than 50%.

And the biofilm biomass removal [3]?
Its biofilm biomass removal is no more than 60%.

What about the MIC [4] of the same compound?
The MIC was greater than 256 µg/mL.

What about the MIC [5] of the same compound?
The MIC was greater than 256 µg/mL.

And the MIC [6]?
Its MIC is greater than 256 µg/mL.

And the MIC [7]?
Its MIC is greater than 256 µg/mL.

`CCCCCCCCCCOC(=O)C[N+](C)(C)CCO` [C10ECholBr] was tested. Which “reduction in cell viability” value ([1]; at 32 µg/mL) did it give?
Its value is 50%.

What about the inhibition at 128 µg/mL [2] of the same compound?
Its inhibition at 128 µg/mL is less than 15%.

What about the biofilm biomass removal [3] of the same compound?
The biofilm biomass removal was “less than 20%”.

And the MIC [4]?
The MIC was greater than 256 µg/mL.

And the MIC [5]?
Its MIC is greater than 256 µg/mL.

What about the MIC [6] of the same compound?
The MIC was greater than 256 µg/mL.

What about the MIC [7] of the same compound?
The MIC was greater than 256 µg/mL.

How did the “inhibition of cell viability” value ([1]; concentrations ≥ 128 µg/mL) turn out when `CCCCCCCCCCCCOC(=O)C[N+](C)(C)CCO` [C12ECholBr] was run?
The value was greater than 95%.

And the inhibition at 128 µg/mL [2]?
Its inhibition at 128 µg/mL is greater than 90%.

What about the biofilm biomass removal [3] of the same compound?
Its biofilm biomass removal is no more than 60%.

And the MIC [4]?
The MIC was 64 µg/mL.

And the MIC [5]?
Its MIC is 32 µg/mL.

What about the MIC [6] of the same compound?
The MIC was greater than 256 µg/mL.

And the MIC [7]?
The MIC was greater than 256 µg/mL.
